# Assay results as given in ChEMBL document CHEMBL3507680, “University of Dundee, Gates Library screen for HepG2 cell viability”.
# Test: Human HepG2 cell viability assay in 384 well format
# Type: toxicity, cell-based
# Design: dose 125 nL, time 70.5 hour; concentration not given beside the values
# Details: HepG2 cells, read-out: Inhibition
row,SMILES,cytotoxicity at 70.5 h [%]
1,Cc1n[nH]c2nc(-c3ccccc3O)cc(C(=O)O)c12,13.5
2,Cc1n[nH]c(C)c1C1CCCN1C(=O)CNC(=O)C(C)(C)C (stereo unspecified),-0.174
3,Cc1cccc2c1cnn2CCCNC(=O)c1ccnn1C,-12.7
4,COc1cccc(CCNC(=O)c2ccc(=O)n(C)c2)c1,-2.94
5,COCc1ccc(CNCc2c(C)nn(C)c2N(C)C)cc1,24.1
6,O=C(c1cocn1)N1CC[C@H]2OCC[C@@]2(COc2ncccc2F)C1,-15.1
7,Cc1cc(C)n(CC(C)NCc2cnc3c(C)cccn23)n1 (stereo unspecified),-2.32
8,CC(CNC(=O)c1cccnc1)Oc1ccc(F)cc1 (stereo unspecified),8.38
9,Oc1ncccc1-c1nc(-c2cccc(CN3CCOCC3)c2)no1,-15.1
10,COCc1ncn2c1CN(C(=O)c1ccc3ccccc3n1)CC2,6.36
11,O=C(NCCc1ccn(-c2ccccc2)n1)N1CCCC(O)C1 (stereo unspecified),1.8
12,NC(=O)Cn1cc(NC(=O)N2CCC(c3ccccc3)CC2)cn1,-5.24
13,CN1CCCN(C[C@@H]2CN(C(=O)CCC3CCCC3)C[C@@H]2CO)CC1,-7.86
14,Cc1ccc(N2CCC3(CCN(C(=O)c4ccsc4)C3)CC2)nn1,-12.9
15,c1ccc(N2CC[C@@H]3CN(Cc4ccncc4)CCO[C@@H]3C2)cc1,-1.73
16,Cc1ccnn1CCNC(=O)C1CCN(S(=O)(=O)c2ccc(F)cc2)C1 (stereo unspecified),6.47
17,COc1ccc(F)cc1C(=O)C1CCCN(Cc2cnc(C)s2)C1 (stereo unspecified),-11.8
18,Cc1nc(CN(Cc2ccccc2)C2CCS(=O)(=O)C2)oc1C (stereo unspecified),-0.994
19,CCc1ncc2c(n1)CN(C(C)C(=O)N1CCOCC1)CC2 (stereo unspecified),17

row,SMILES,cytotoxicity at 70.5 h [%]
1,CCn1cc(NC(=O)NCC(C)N(C)C2CC2)cn1 (stereo unspecified),-4.71
2,Cc1nc(N2CCCC2)nc2c1CN(C(=O)N1CCOCC1)CC2,-14.3
3,Cc1ccccc1Cc1cnc(NC(=O)C2CNC(=O)N2)s1 (stereo unspecified),2.49
4,COc1ncccc1CN1C[C@@H]2COC[C@]2(COc2ccccn2)C1,-20.4
5,COCCN1CCC2(CC1)CC(NCc1cncn1C)c1ccccc12 (stereo unspecified),1.8
6,O=C(NCCc1ccc(Cl)s1)NCc1nnc2n1CCC2,8.18
7,Cc1ccc2cc(CNCCCN3CCOCC3)c(=O)[nH]c2c1C,-8.68
8,CC(C)NC(=O)CNC(=O)N1CCc2c([nH]c3ccc(Cl)cc23)C1,-7.52
9,COc1cccc(C(C)N2CCN(S(=O)(=O)c3ccccc3)CC2)c1 (stereo unspecified),-2.4
10,Cc1nc(C)n(CC(C)C(=O)N2CCC(CN3CCOCC3)CC2)n1 (stereo unspecified),4.58
11,CC(C)(C)Oc1ccccc1CNC(=O)C1CCCOC1 (stereo unspecified),-0.0152
12,CC(C)N1CCN(C(=O)Cc2csc(-c3ccco3)n2)CC1,-0.696
13,COc1cccc(C2CCCN2C(=O)c2ccc(=O)n(C)c2)c1 (stereo unspecified),-3.72
14,CN(C)C(=O)[C@H]1C[C@H]2OCC[C@H]2N(Cc2ccc3c(c2)OCO3)C1,0.648
15,CC(C)C(=O)N1CCN(C(=O)c2cc(C(C)C)on2)[C@H]2CS(=O)(=O)C[C@H]21,14.2
16,CS(=O)(=O)N1C[C@@H]2CC[C@H](C1)N(Cc1ccc3nsnc3c1)C2,18.3
17,NC(=O)NC(=O)CCN1CCN(CC2CC2)c2ccccc21,31.2
18,CC(C)c1ncc(CN2CCC(CO)C2)cn1 (stereo unspecified),-4.22
19,Cn1nc(C2CCN(C(=O)CN3CCCCC3)CC2)c2cccnc21,-4.57

row,SMILES,cytotoxicity at 70.5 h [%]
1,O=C(NCCNc1ncccn1)C1CCN(CC(F)(F)F)CC1,-3.78
2,COc1cccc(CNC(=O)c2cccnc2N)c1,6.88
3,c1cc(-c2noc(C3CCC3)n2)cc(N2CCCCC2)n1,16.5
4,CN(C)C(=O)CCCn1ccc(NCc2ccc(C#N)cc2)n1,-2.31
5,c1csc(CN2CCc3c(CNc4nncs4)cncc3C2)c1,-9.12
6,CN(C)C(C(=O)NCC1(N(C)C)CCOCC1)c1ccccc1F (stereo unspecified),-7.91
7,CC(CS(C)(=O)=O)N(C(=O)Nc1cc(F)ccc1Cl)C1CC1 (stereo unspecified),2.35
8,COCCc1ncc(CN2C[C@H](C3CC3)[C@@H](N)C2)cn1,-8.11
9,Cc1ccc(Sc2ccc(CN3CCC4(CCCNC4=O)C3)o2)cc1 (stereo unspecified),5.69
10,CC(C)(C)C(=O)NCCc1ccn(-c2ccccc2)n1,-17.1
11,CC(C)CCN(c1cn[nH]c1)S(=O)(=O)c1cccc(C#N)c1,18.2
12,O=C(c1cc2c([nH]c1=O)CCC2)N1CCCCC1c1cccc(F)c1 (stereo unspecified),2.02
13,Cc1cnn(CC2CCCN2C(=O)c2cn(-c3ccccc3)nc2C)c1 (stereo unspecified),6.33
14,O=C(c1c[nH]c(=O)[nH]c1=O)N1CCCC(c2cnccn2)C1 (stereo unspecified),-2.78
15,Cn1cc(N2CC3(CCN(Cc4nccn4C)C3)CC2=O)cn1 (stereo unspecified),-12.4
16,COCC(=O)N1CCN(C)c2ncccc2C1,-0.482
17,O=C(C1CCOC1)N1CCC2(CC1)COC2 (stereo unspecified),-7.79
18,Cc1sc(-c2ccco2)nc1C(=O)N(CC(N)=O)C1CCCC1,-2.05
